PubChem BioAssay (NCI)
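Tested at 5 concentrations; 48 h exposure; 96-well plates; endpoints linearly interpolated, else capped at highest concentration. TGI marks complete inhibition of growth.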

What was measured:
Experiment in all cases: NCI anticancer screen, dose series, 48 h
OVCAR-8 ovarian = test system: OVCAR-8 ovarian
OVCAR-5 ovarian = test system: OVCAR-5 ovarian
MOLT-4 leukemia = test system: MOLT-4 leukemia
U251 CNS = test system: U251 CNS
OVCAR-4 ovarian = test system: OVCAR-4 ovarian
NCI-H522 lung = test system: NCI-H522 lung
UACC-257 melanoma = test system: UACC-257 melanoma
UACC-62 melanoma = test system: UACC-62 melanoma
MCF7 breast = test system: MCF7 breast
SN12C renal = test system: SN12C renal
K-562 leukemia = test system: K-562 leukemia
TK-10 renal = test system: TK-10 renal
NCI-H23 lung = test system: NCI-H23 lung
MDA-N = test system: MDA-N
A549 NSCLC = test system: A549 NSCLC
MDA-MB-435 = test system: MDA-MB-435
HOP-92 NSCLC = test system: HOP-92 NSCLC
UO-31 renal = test system: UO-31 renal
SK-MEL-28 melanoma = test system: SK-MEL-28 melanoma
EKVX NSCLC = test system: EKVX NSCLC
SF-295 CNS = test system: SF-295 CNS
SNB-75 CNS = test system: SNB-75 CNS
IGROV1 ovarian = test system: IGROV1 ovarian
NCI/ADR-RES ovarian = test system: NCI/ADR-RES ovarian
SF-268 CNS = test system: SF-268 CNS
KM12 colon = test system: KM12 colon
LOX IMVI melanoma = test system: LOX IMVI melanoma
PC-3 prostate = test system: PC-3 prostate
SK-OV-3 ovarian = test system: SK-OV-3 ovarian
HL-60(TB) leukemia = test system: HL-60(TB) leukemia
DU-145 prostate = test system: DU-145 prostate
BT-549 breast = test system: BT-549 breast
SNB-19 CNS = test system: SNB-19 CNS
SW-620 colon = test system: SW-620 colon
HCC-2998 colon = test system: HCC-2998 colon
786-0 renal = test system: 786-0 renal
CAKI-1 renal = test system: CAKI-1 renal
MALME-3M melanoma = test system: MALME-3M melanoma
HS 578T breast = test system: HS 578T breast
SK-MEL-2 melanoma = test system: SK-MEL-2 melanoma
HT29 colon = test system: HT29 colon
MDA-MB-231 breast = test system: MDA-MB-231 breast
ACHN renal = test system: ACHN renal
COLO 205 colon = test system: COLO 205 colon
OVCAR-3 ovarian = test system: OVCAR-3 ovarian
CCRF-CEM leukemia = test system: CCRF-CEM leukemia
NCI-H460 lung = test system: NCI-H460 lung
SF-539 CNS = test system: SF-539 CNS
NCI-H226 lung = test system: NCI-H226 lung
A498 renal = test system: A498 renal
HCT-116 colon = test system: HCT-116 colon
RXF 393 renal = test system: RXF 393 renal
T-47D breast = test system: T-47D breast
SK-MEL-5 melanoma = test system: SK-MEL-5 melanoma
SR leukemia = test system: SR leukemia
HOP-62 NSCLC = test system: HOP-62 NSCLC
HCT-15 colon = test system: HCT-15 colon
M14 melanoma = test system: M14 melanoma
RPMI-8226 leukemia = test system: RPMI-8226 leukemia

Measured: TGI

C/C=C/[C@@H]1[C@H]2C(=O)[C@]3(Cl)[C@@H](/C=C/C)[C@@H]3C(=O)[C@@]12Cl
> 100 µM: OVCAR-8 ovarian | OVCAR-5 ovarian | MOLT-4 leukemia | U251 CNS | OVCAR-4 ovarian | NCI-H522 lung | UACC-257 melanoma | UACC-62 melanoma | MCF7 breast | SN12C renal | K-562 leukemia | TK-10 renal | NCI-H23 lung | MDA-N | A549 NSCLC | MDA-MB-435 | HOP-92 NSCLC | UO-31 renal | SK-MEL-28 melanoma | EKVX NSCLC | SF-295 CNS | SNB-75 CNS | IGROV1 ovarian | NCI/ADR-RES ovarian | SF-268 CNS | KM12 colon | LOX IMVI melanoma | PC-3 prostate | SK-OV-3 ovarian | HL-60(TB) leukemia | DU-145 prostate | BT-549 breast | SNB-19 CNS | SW-620 colon | HCC-2998 colon | 786-0 renal | CAKI-1 renal | MALME-3M melanoma | HS 578T breast | SK-MEL-2 melanoma | HT29 colon | MDA-MB-231 breast | ACHN renal | COLO 205 colon | OVCAR-3 ovarian | CCRF-CEM leukemia | NCI-H460 lung | SF-539 CNS | NCI-H226 lung | A498 renal | HCT-116 colon | RXF 393 renal | T-47D breast | SK-MEL-5 melanoma | SR leukemia | HOP-62 NSCLC | HCT-15 colon | M14 melanoma

COc1cccc2c1-c1ccccc1[C@H](Nc1ccccc1)[C@@]2(C)O
32 µM: HS 578T breast
50.9 µM: CCRF-CEM leukemia
16.8 µM: SN12C renal
23.2 µM: NCI-H23 lung
16.9 µM: UO-31 renal
28 µM: LOX IMVI melanoma
11 µM: RXF 393 renal
17.7 µM: DU-145 prostate
22.2 µM: A549 NSCLC
5.25 µM: MDA-N
22 µM: A498 renal
22.9 µM: SR leukemia
25.7 µM: OVCAR-4 ovarian
19.7 µM: UACC-257 melanoma | HCC-2998 colon
24.3 µM: MDA-MB-231 breast
16.3 µM: U251 CNS
19.9 µM: SK-MEL-2 melanoma
15.6 µM: KM12 colon | NCI-H226 lung
19.3 µM: SNB-19 CNS
26 µM: HOP-92 NSCLC
> 100 µM: MOLT-4 leukemia | K-562 leukemia
25.1 µM: EKVX NSCLC
15 µM: HCT-116 colon
30 µM: SW-620 colon
26.7 µM: SK-MEL-28 melanoma
11.6 µM: SF-539 CNS
22.1 µM: TK-10 renal | MALME-3M melanoma
21.1 µM: SF-268 CNS
17.5 µM: CAKI-1 renal
26.8 µM: HL-60(TB) leukemia
6.85 µM: SNB-75 CNS
15.2 µM: NCI/ADR-RES ovarian
14.1 µM: SK-MEL-5 melanoma
20.2 µM: 786-0 renal
28.2 µM: OVCAR-5 ovarian
23.3 µM: BT-549 breast
21.6 µM: UACC-62 melanoma | ACHN renal
7.85 µM: OVCAR-3 ovarian
18.9 µM: HCT-15 colon
14 µM: HT29 colon | NCI-H460 lung
10.4 µM: COLO 205 colon
31 µM: OVCAR-8 ovarian
14.8 µM: M14 melanoma
21.3 µM: SK-OV-3 ovarian
6.14 µM: MDA-MB-435
15.8 µM: SF-295 CNS
30.2 µM: T-47D breast
8.49 µM: NCI-H522 lung
19 µM: PC-3 prostate | HOP-62 NSCLC
17.2 µM: MCF7 breast

COc1ccc(C2N(c3ccc(F)c([N+](=O)[O-])c3)C(=O)N3C(c4ccc(OC)cc4)N(c4ccc(F)c([N+](=O)[O-])c4)C(=O)N23)cc1 (stereo not given)
> 100 µM: OVCAR-8 ovarian | OVCAR-5 ovarian | U251 CNS | OVCAR-4 ovarian | NCI-H522 lung | UACC-257 melanoma | UACC-62 melanoma | MCF7 breast | SN12C renal | TK-10 renal | NCI-H23 lung | MDA-N | A549 NSCLC | MDA-MB-435 | HOP-92 NSCLC | UO-31 renal | SK-MEL-28 melanoma | EKVX NSCLC | SF-295 CNS | SNB-75 CNS | IGROV1 ovarian | NCI/ADR-RES ovarian | SF-268 CNS | KM12 colon | LOX IMVI melanoma | RPMI-8226 leukemia | PC-3 prostate | HL-60(TB) leukemia | DU-145 prostate | BT-549 breast | SNB-19 CNS | SW-620 colon | HCC-2998 colon | 786-0 renal | CAKI-1 renal | MALME-3M melanoma | HS 578T breast | SK-MEL-2 melanoma | HT29 colon | MDA-MB-231 breast | ACHN renal | COLO 205 colon | OVCAR-3 ovarian | CCRF-CEM leukemia | NCI-H460 lung | SF-539 CNS | A498 renal | HCT-116 colon | RXF 393 renal | T-47D breast | SK-MEL-5 melanoma | SR leukemia | HOP-62 NSCLC | HCT-15 colon | M14 melanoma
